The text below walks through data of article PMC9508196 (Scientific Reports, 2022).

Values after ≈ are worked out from the molar mass of the structure shown. No end group written: not given here.

Data set [1] concerns Staphylococcus epidermidis ATCC 12,228. Type of data set: cell-based. Particulars: S. epidermidis ATCC 12,228; broth microdilution, MHB, 24 h, 37 °C, triplicate. An excerpt: (§1) Ten strains of both Gram-positive and -negative bacteria, including Staphylococcus aureus ATCC 25,923, S. epidermidis ATCC 12,228, Bacillus cereus ATCC 11,778, Listeria monocytogenes 10403S, Salmonella typhimurium ATCC 13,311, Pseudomonas aeruginosa ATCC 27,853, Shigella sonnei ATCC 11,060, A. baumannii ATCC 19,606, Escherichia coli ATCC 25,922 and E. coli O157:H7, were used in this study. Eight clinical isolates of multidrug-resistant (MDR) and extensively drug-resistant (XDR) A. baumannii, isolated from human (blood, sputum, respiratory sample, sterile site sample and urine), were kindly provided by Asst. Prof. Dr. Sakawrat Kanthawong (Faculty of Medicine, Khon Kaen University, Thailand) (Table S1). All bacterial strains, excluding L. monocytogenes 10403S and E. coli, were cultured in tryptic soy broth (TSB). L. monocytogenes was grown in TSB supplemented with 0.6% yeast extract (TSB-YE), and E. coli was cultured in Luria broth (LB). All of bacteria were cultured at 37 °C with continuous shaking at 220 rpm.
(§2) Minimum inhibitory concentration (MIC) of peptides and antibiotics was assessed by a modified version of the broth microdilution method from the Clinical and Laboratory Standards Institute (CLSI) as previously described. In brief, mid-log phase growths of microbial strains were cultured in Müeller-Hinton broth (MHB) with an initial inoculum of 2–8 × 10^5 CFU/mL. Bacteria suspensions were incubated in sterile 96-well plates with test agents at desired concentrations. […] Minimum bactericidal concentration (MBC) determination was performed using a modified version of the colony count assay. In brief, fifty µl of all non-turbid wells from MIC experiments were spread on agar plates. The MBC value was defined as the lowest concentration of peptides with no colony growth on the plate. All assays were performed in triplicate.

Data set [2] relates to Escherichia coli O157:H7 MT strain. Format: cell-based. Particulars: E. coli O157:H7 MT strain; broth microdilution, MHB, 24 h, 37 °C, triplicate.
Source text: as §1, §2

Data set [3] has as its system Bacillus cereus ATCC 11,778. Type of data set: cell-based. Particulars: B. cereus ATCC 11,778; broth microdilution, MHB, 24 h, 37 °C, triplicate.
Source text: as §1, §2
A general note: Dilution methods test growth across graded concentrations, often in twofold steps.

Data set [4] has as its system Pseudomonas aeruginosa ATCC 27,853. Type of data set: cell-based. Particulars: P. aeruginosa ATCC 27,853; broth microdilution, MHB, 24 h, 37 °C, triplicate.
Source text: as §1, §2

Data set [5] concerns Salmonella Typhimurium ATCC 13,311. Type of data set: cell-based. Particulars: S. Typhimurium ATCC 13,311; broth microdilution, MHB, 24 h, 37 °C, triplicate.
Source text: as §1, §2

Data set [6] relates to Listeria monocytogenes 10403S. Format: cell-based. Particulars: L. monocytogenes 10403S; broth microdilution, MHB, 24 h, 37 °C, triplicate.
Source text: as §1, §2

Data set [7] deals with Shigella sonnei ATCC 11,060. Format: cell-based. Particulars: S. sonnei ATCC 11,060; broth microdilution, MHB, 24 h, 37 °C, triplicate.
Source text: as §1, §2

In data set [8] the test system is A. baumannii ATCC 19,606. Nature of the data set: microbe, parasite or virus in culture. Format: cell-based, Acinetobacter baumannii. Particulars: A. baumannii ATCC 19,606; broth microdilution (modified CLSI), MHB, 2–8 × 10^5 CFU/mL, 24 h, 37 °C, triplicate.
Source text: as §1, §2

Data set [9] has as its system mouse fibroblast (L929) cells. Kind of data set: In vitro cytotoxicity assay (MTT). Format: cell-based. Particulars: 24 h, peptide 62.5 µg/mL. The protocol: The colorimetric 3-(4,5 dimethylthiazol-2-yl)-2,5-diphenyltetrazolium bromide (MTT; Invitrogen) dye reduction assay was used to determine the cytotoxicity of peptides on mouse fibroblast (L929) cells (NCTC clone 929) according to a modified MTT assay. L929 cells were cultured in Dulbecco’s Modified Eagle Medium (DMEM; Gibco) containing 10% fetal bovine serum (FBS; Gibco) and 100 U/ml penicillin–streptomycin in a fully humidified atmosphere of 95% air and 5% CO2 at 37 °C. The cells (10^5 cells/well) were seeded on 96-well plates and incubated with serially diluted peptide (0.98 to 250 μg/ml) for 24 h. At the end of incubation period, MTT solution (100 µl, 0.4 mg/ml) was added to each well and incubated for 4 h. The supernatants were removed and replaced by 100 µl of DMSO to dissolve the purple formazan crystals. Absorbance was measured using a MultiskanTM FC microplate reader at a wavelength of 570 nm. Cells without peptides served as negative controls. Cell viability (percentage) was calculated using the following equation: %Cell viability=OD570of treated sample-ODBlank/OD570of control-ODBlank×100%

The test system of data set [10] is Escherichia coli ATCC 25,922. Type of data set: cell-based. Particulars: E. coli ATCC 25,922; broth microdilution, MHB, 24 h, 37 °C, triplicate.
Source text: as §1, §2

In data set [11] the test system is Staphylococcus aureus ATCC 25,923. Type of data set: cell-based. Particulars: S. aureus ATCC 25,923; broth microdilution, MHB, 24 h, 37 °C, triplicate.
Source text: as §1, §2

For data set [12], the system named is human red blood cells (hRBCs). Nature of the data set: Hemolysis assay. Format: cell-based. Particulars: peptide concentration that caused 10% hemolysis; 2% (v/v) hRBCs in PBS pH 7.4, 0.98 to 250 μg/ml, 1 h, 37 °C, OD 405 nm, triplicate. The protocol: The hemolytic activity of peptides was determined as the amount of hemoglobin released from lysed human red blood cells (hRBCs) after treatment with peptide. Fresh hRBCs were collected from a healthy volunteer in polycarbonate tubes containing heparin. Then, the collected packed RBCs were washed at least three times (or until the supernatant was clear) with sterile phosphate-buffered saline pH 7.4 (PBS) and centrifuged at 2,000 × g for 5 min. The 2% (v/v) of washed hRBCs in PBS were incubated with serially diluted peptides (0.98 to 250 μg/ml) for 1 h at 37 °C. After centrifugation, the supernatants were monitored for optical density (OD) at 405 nm using a Multiskan FC Microplate Reader[21]. Values for 0% (negative control) and 100% (positive control) lysis were determined by incubating the hRBCs with PBS only (ODBlank) and 0.1% (v/v) Triton X-100 (ODTriton X-100), respectively. The experiments were performed in triplicate. The percent hemolysis was calculated according to the following equation: %Hemolysis=ODSample-ODBlank/ODTriton X-100-ODBlank×100

With `CC[C@H](C)[C@H](NC(=O)CN)C(=O)NCC(=O)N[C@@H](C)C(=O)N[C@H](C(=O)N[C@@H](CC(C)C)C(=O)N[C@@H](CCCCN)C(=O)N[C@H](C(=O)N[C@@H](CC(C)C)C(=O)N[C@H](C(=O)N[C@H](C(=O)NCC(=O)N[C@@H](CC(C)C)C(=O)N1CCC[C@H]1C(=O)N[C@@H](C)C(=O)N[C@@H](CC(C)C)C(=O)N[C@H](C(=O)N[C@@H](CO)C(=O)N[C@@H](Cc1c[nH]c2ccccc12)C(=O)N[C@H](C(=O)N[C@@H](CCCCN)C(=O)N[C@@H](CCCNC(=N)N)C(=O)N[C@@H](CCCCN)C(=O)N[C@@H](CCCNC(=N)N)C(=O)N[C@@H](CCC(N)=O)C(=O)N[C@@H](CCC(N)=O)C(N)=O)[C@@H](C)CC)[C@@H](C)CC)[C@@H](C)O)[C@@H](C)O)C(C)C)C(C)C` [Melittin, reference compound], the MIC in [1] came to 3.91 µg/mL (≈ 1.37 µM); in data set [2], 7.81 µg/mL (≈ 2.74 µM); in data set [3] it was 7.81 µg/mL (≈ 2.74 µM); in data set [4], 7.81 µg/mL (≈ 2.74 µM); in data set [5], 3.91 µg/mL (≈ 1.37 µM); in data set [6], 3.91 µg/mL (≈ 1.37 µM). For the same compound, the MIC in [7] and in data set [8] was 3.91 µg/mL (≈ 1.37 µM) throughout. Further, in data set [9], the cell viability entry is recorded as “less than 5%”.

For the compound RLFRRVKKVAGKIAKRIWKILRR-NH2 [A3P7], the MIC was determined as 7.81 µg/mL in [10]; 7.81 µg/mL in data set [1]; 15.63 µg/mL in data set [2]; 7.81 µg/mL in data set [3]; 7.81 µg/mL in data set [4]; 7.81 µg/mL in data set [11]. In addition, the MIC came to 7.81 µg/mL in [5], 3.91 µg/mL in data set [6], 7.81 µg/mL in data set [7] and 7.81 µg/mL in [8]. In addition, the “MHC, minimum hemolytic concentration” value in [12] was determined as 1.95 µg/mL.
